According to ChEMBL document CHEMBL5532659, “Design, Synthesis, and Evaluation of Cephamycin-Based Antisporulation Agents targeting Clostridioides difficile” (J Med Chem, 2024):
≈ marks a conversion by molar mass, not a printed value.

Experiments:
Staphylococcus aureus = experiment: Antimicrobial activity against methicillin-resistant Staphylococcus aureus ATCC 43300 assessed as microbial growth inhibition incubated for 18 hrs; assay type: functional
Cryptococcus neoformans = experiment: Antimicrobial activity against Cryptococcus neoformans ATCC 208821 assessed as microbial growth inhibition incubated for 36 hrs by resazurin dye based assay; assay type: functional
Klebsiella pneumoniae = experiment: Antimicrobial activity against multidrug-resistant Klebsiella pneumoniae ATCC 700603 assessed as microbial growth inhibition incubated for 18 hrs; assay type: functional
Erythrocyte = experiment: Hemolytic activity in human RBC incubated for 70 mins by absorbance based assay; assay type: toxicity, cell-based; details: 1.167 h
[1] = Inhibition of Clostridium difficile SpoVD using Boc-FL as substrate preincubated for 30 mins followed by substrate addition measured after 30 mins by FP assay; design: species or system Clostridioides difficile
Candida albicans = experiment: Antimicrobial activity against Candida albicans ATCC 90028 assessed as microbial growth inhibition incubated for 36 hrs by resazurin dye based assay; assay type: functional
Escherichia coli = experiment: Antimicrobial activity against Escherichia coli ATCC 25922 assessed as microbial growth inhibition incubated for 18 hrs; assay type: functional
Acinetobacter baumannii = experiment: Antimicrobial activity against Acinetobacter baumannii ATCC 19603 assessed as microbial growth inhibition incubated for 18 hrs; assay type: functional
Clostridioides difficile [2] = experiment: Anti-sporulation activity against Clostridium difficile M7404 assessed as fold reduction in spore count incubated overnight by absorbance based assay relative to control; assay type: functional; also: test concentration or dose not given here
[3] = Cytotoxicity against HEK293 cells incubated for 20 hrs by resazurin dye based assay; assay type: toxicity, cell-based; details: human
Clostridioides difficile [4] = experiment: Antimicrobial activity against Clostridium difficile assessed as microbial growth inhibition incubated for 18 hrs; assay type: functional
Pseudomonas aeruginosa = experiment: Antimicrobial activity against Pseudomonas aeruginosa ATCC 27853 assessed as microbial growth inhibition incubated for 18 hrs; assay type: functional

Row | SMILES | MIC50 (Staphylococcus aureus) | MIC50 (Cryptococcus neoformans) | MIC50 (Klebsiella pneumoniae) | HC10 (Erythrocyte) | IC50 [1] | MIC50 (Candida albicans) | MIC50 (Escherichia coli) | MIC50 (Acinetobacter baumannii) | fold change (FC) (Clostridioides difficile [2]) | CC50 at 20 h [3] | MIC50 (Clostridioides difficile [4]) | MIC50 (Pseudomonas aeruginosa)
1 | CO[C@@]1(NC(=O)Cn2cc(-c3ccc(C#N)cc3)nn2)C(=O)N2C(C(=O)O)=C(CSc3nnnn3C)CS[C@@H]21 | > 32 µg/mL | > 32 µg/mL | > 32 µg/mL | > 32 µg/mL | 72 nM | > 32 µg/mL | 32 µg/mL (≈ 56.3 µM) | > 32 µg/mL | >100000 | > 32 µg/mL | > 40 µg/mL | > 32 µg/mL
2 | CO[C@@]1(NC(=O)Cn2cc(CCC(C)C)nn2)C(=O)N2C(C(=O)O)=C(CSc3nnnn3C)CS[C@@H]21 | 32 µg/mL (≈ 59.5 µM) | > 32 µg/mL | > 32 µg/mL | > 32 µg/mL | 142 nM | > 32 µg/mL | 32 µg/mL (≈ 59.5 µM) | > 32 µg/mL | 1000 | 16.1 µg/mL (≈ 29.9 µM) | 5 µg/mL (≈ 9.3 µM) | > 32 µg/mL
3 | CO[C@@]1(NC(=O)Cn2cc(C(=O)O)nn2)C(=O)N2C(C(=O)O)=C(CSc3nnnn3C)CS[C@@H]21 | ≤ 0.25 µg/mL | > 32 µg/mL | > 32 µg/mL | > 32 µg/mL |  | > 32 µg/mL | 16 µg/mL (≈ 31.3 µM) | > 32 µg/mL | 100 | > 32 µg/mL | 20 µg/mL (≈ 39.1 µM) | > 32 µg/mL
4 | CO[C@@]1(NC(=O)Cn2cc(C(C)(C)O)nn2)C(=O)N2C(C(=O)O)=C(CSc3nnnn3C)CS[C@@H]21 | 32 µg/mL (≈ 60.9 µM) | > 32 µg/mL | 32 µg/mL (≈ 60.9 µM) | 17 µg/mL |  | > 32 µg/mL | 32 µg/mL (≈ 60.9 µM) | > 32 µg/mL | 100 | 0.7 µg/mL (≈ 1.33 µM) | 40 µg/mL (≈ 76.1 µM) | > 32 µg/mL
5 | CO[C@@]1(NC(=O)Cn2cc(C3CCCCC3)nn2)C(=O)N2C(C(=O)O)=C(CSc3nnnn3C)CS[C@@H]21 | 32 µg/mL (≈ 58.2 µM) | > 32 µg/mL | > 32 µg/mL | 10 µg/mL | 90 nM | > 32 µg/mL | 32 µg/mL (≈ 58.2 µM) | > 32 µg/mL | >100000 | > 32 µg/mL | 5 µg/mL (≈ 9.1 µM) | > 32 µg/mL
6 | CO[C@@]1(NC(=O)Cn2cc(-c3cccc(F)c3)nn2)C(=O)N2C(C(=O)O)=C(CSc3nnnn3C)CS[C@@H]21 | 32 µg/mL (≈ 57 µM) | > 32 µg/mL | > 32 µg/mL | > 32 µg/mL | 131 nM | > 32 µg/mL | 32 µg/mL (≈ 57 µM) | > 32 µg/mL | 1000 | 13.2 µg/mL (≈ 23.5 µM) | 5 µg/mL (≈ 8.9 µM) | > 32 µg/mL
7 | CO[C@@]1(NC(=O)Cn2cc(-c3ccc(C(=O)O)cc3)nn2)C(=O)N2C(C(=O)O)=C(CSc3nnnn3C)CS[C@@H]21 | 32 µg/mL (≈ 54.5 µM) | > 32 µg/mL | 32 µg/mL (≈ 54.5 µM) | > 32 µg/mL | 115 nM | > 32 µg/mL | 32 µg/mL (≈ 54.5 µM) | > 32 µg/mL | 1000 | > 32 µg/mL | 10 µg/mL (≈ 17 µM) | > 32 µg/mL
8 | COc1ccc(-c2cn(CC(=O)N[C@]3(OC)C(=O)N4C(C(=O)O)=C(CSc5nnnn5C)CS[C@@H]43)nn2)cc1 | 32 µg/mL (≈ 55.8 µM) | > 32 µg/mL | > 32 µg/mL | > 32 µg/mL | > 15000 nM | > 32 µg/mL | 32 µg/mL (≈ 55.8 µM) | > 32 µg/mL | 100 | > 32 µg/mL | 10 µg/mL (≈ 17.4 µM) | > 32 µg/mL
